Key:
Format in all cases: in vivo
[1] = test system: pigweed (Amaranthus spp.); assay: Test B: overall spray in carrot field after weed emergence, percent control of pigweed; details: six weeks after treatment, 0.1% Tween 20
Text: (§1) Test B involved a field sown to carrots and in which the following weed species emerged naturally: crabgrass (Digitaria sanquinalis), foxtails (Setaria spp.), barnyardgrass (Echinochloa crusgalli), pigweed (Amaranthus spp.), ragweed (Ambrosia artemisiifolia), velvetleaf (Abutilon theophrasti), smartweed (Polygonum spp.) and lambsquarters (Chenopodium album). Sixteen days after sowing, when all species of weeds had emerged, the plants were sprayed overall with a 50% wettable powder formulation of 2-(4-chloro-2-fluorophenyl)4,5,6,7-tetrahydro-2H-isoindole-1,3dione (Treatment I) in the form of an aqueous suspension, at rates of 0.5, 1.0, 2.0 and 4.0 kg/ha, and with 2-(4-chlorophenyl)-4,5,6,7-tetrahydro-2H-isoindole-1,3-dione (Treatment II) in the same form and at the same rates. The spray volume was 425 l/ha. The surfactant Tween 20* was added to all treatments in a concentration of 0.1% by weight. Six weeks after treatment, visual observations were made of percent weed control obtained and, for carrots, crop response.
(§2) *Tween 20 -- A trademark of ICI of America which is the reaction product of sorbitan monolaurate with an average of 20 moles of ethylene oxide.

[2] = test system: crabgrass (Digitaria sanquinalis); assay: Test C: preemergence weed control in rice, crabgrass; details: 29 days after treatment
Text: (§3) In test A, soybeans, peanuts, lima beans, green beans and squash were planted in a field infested with the following weed seeds: crabgrass (Digitaria sanquinalis), foxtails (Setaria spp.), barnyardgrass (Echinochloa crusgalli), pigweed (Amaranthus spp.), ragweed (Ambrosia artemisiifolia), velvetleaf (Abutilon theophrasti), purslane (Portulaca oleracea) and flower-of-an-hour (Hibiscus trionum). A 50% wettable powder formulation of 2-(4-chloro-2-fluorophenyl)-4,5,6,7-tetrahydro-2H-isoindole-1,3-dione was applied in the form of an aqueous suspension at rates of 0.125, 0.25, 0.5 and 1.0 kg/ha, each treatment replicated twice. The plots were rated for percent weed control and crop response seven weeks after treatment. Crop response was expressed on a scale of 0 = no injury to 10 = complete kill.
(§4) Test C concerned preemergence weed control in rice. The field selected contained seeds of the following weed species: crabgrass (Digitaria sanquinalis), foxtail (Setaria spp.), barnyardgrass (Echinochloa crusgalli), pigweed (Amaranthus spp.), ragweed (Ambrosia artemisiifolia), velvetleaf (Abutilon theophrasti), purslane (Portulaca oleracea) and flower-of-an-hour (Hibiscus trionum). Two varieties of rice, CSM-3 and Nato, were planted at depths of both 1 and 2 cm. In addition, rice seedlings of both varieties were transplanted into the field to be treated. Immediately thereafter, the plot was treated with an aqueous suspension of 2-(4-chloro-2-fluorophenyl)-4,5,6,7-tetrahydro-2H-isoindole-1,3-dione (Treatment I) at rates of 0.125 and 0.25 kg/ha, and an aqueous suspension of 2-(4-chlorophenyl)-4,5,6,7-tetrahydro-2H-isoindole-1,3dione (Treatment II) at rates of 0.25, 0.50, 1.00 and 2.00 kg/ha. The test chemicals had been formulated as 50% wettable powders. Overall spray volume was 540 l/ha. Ratings of percent weed control obtained and crop response were made 29 days after treatment, as described for test A. The ratings are summarized in the following Table III.

[3] = test system: lambsquarters (Chenopodium album); assay: Test B: overall spray in carrot field after weed emergence, percent control of lambsquarters; details: six weeks after treatment, 0.1% Tween 20
Text: as §1, §2

[4] = test system: ragweed (Ambrosia artemisiifolia); assay: Test C: preemergence weed control in rice, ragweed; details: 29 days after treatment
Text: as §3, §4

[5] = test system: crabgrass (Digitaria sanquinalis); assay: Test B: overall spray in carrot field after weed emergence, percent control of crabgrass; details: six weeks after treatment, 0.1% Tween 20
Text: as §1, §2

[6] = test system: smartweed (Polygonum spp.); assay: Test B: overall spray in carrot field after weed emergence, percent control of smartweed; details: six weeks after treatment, 0.1% Tween 20
Text: as §1, §2

[7] = test system: velvetleaf (Abutilon theophrasti); assay: Test B: overall spray in carrot field after weed emergence, percent control of velvetleaf; details: six weeks after treatment, 0.1% Tween 20
Text: as §1, §2

foxtails (Setaria spp.) = assay: Test B: overall spray in carrot field after weed emergence, percent control of foxtails; details: six weeks after treatment, 0.1% Tween 20
Text: as §1, §2

[8] = test system: pigweed (Amaranthus spp.); assay: Test C: preemergence weed control in rice, pigweed; details: 29 days after treatment
Text: as §3, §4

[9] = test system: barnyardgrass (Echinochloa crusgalli); assay: Test C: preemergence weed control in rice, barnyardgrass; details: 29 days after treatment
Text: as §3, §4

foxtail (Setaria spp.) = assay: Test C: preemergence weed control in rice, foxtail; details: 29 days after treatment
Text: as §3, §4

[10] = test system: flower-of-an-hour (Hibiscus trionum); assay: Test C: preemergence weed control in rice, flower-of-an-hour; details: 29 days after treatment
Text: as §3, §4

[11] = test system: velvetleaf (Abutilon theophrasti); assay: Test C: preemergence weed control in rice, velvetleaf; details: 29 days after treatment
Text: as §3, §4

O=C1C2=C(CCCC2)C(=O)N1c1ccc(Cl)cc1F [Treatment I, 2-(4-chloro-2-fluorophenyl)-4,5,6,7-tetrahydro-2H-isoindole-1,3-dione]
% Control, Pigweed ([1]; 0.5 kg/ha): 92% | % Control, Pigweed ([1]; 1.0 kg/ha): 99% | % Control, Pigweed ([1]; 2.0 kg/ha): 100% | % Control, Pigweed ([1]; 4.0 kg/ha): 100% | % Control, Crabgrass ([2]; 0.125 kg/ha): 96% | % Control, Crabgrass ([2]; 0.25 kg/ha): 100% | % Control, Lambsquarters ([3]; 0.5 kg/ha): 100% | % Control, Lambsquarters ([3]; 1.0 kg/ha): 100% | % Control, Lambsquarters ([3]; 2.0 kg/ha): 100% | % Control, Lambsquarters ([3]; 4.0 kg/ha): 100% | % Control, Ragweed ([4]; 0.125 kg/ha): 100% | % Control, Ragweed ([4]; 0.25 kg/ha): 100% | % Control, Crabgrass ([5]; 0.5 kg/ha): 60% | % Control, Crabgrass ([5]; 1.0 kg/ha): 85% | % Control, Crabgrass ([5]; 2.0 kg/ha): 90% | % Control, Crabgrass ([5]; 4.0 kg/ha): 100% | % Control, Smartweed ([6]; 0.5 kg/ha): > 99% | % Control, Smartweed ([6]; 1.0 kg/ha): 100% | % Control, Smartweed ([6]; 2.0 kg/ha): 100% | % Control, Smartweed ([6]; 4.0 kg/ha): 100% | % Control, Velvetleaf ([7]; 0.5 kg/ha): 100% | % Control, Velvetleaf ([7]; 1.0 kg/ha): 100% | % Control, Velvetleaf ([7]; 2.0 kg/ha): 100% | % Control, Velvetleaf ([7]; 4.0 kg/ha): 100% | % Control, Foxtails (foxtails (Setaria spp.); 0.5 kg/ha): 70% | % Control, Foxtails (foxtails (Setaria spp.); 1.0 kg/ha): 90% | % Control, Foxtails (foxtails (Setaria spp.); 2.0 kg/ha): 94% | % Control, Foxtails (foxtails (Setaria spp.); 4.0 kg/ha): > 99% | % Control, Pigweed ([8]; 0.125 kg/ha): 99% | % Control, Pigweed ([8]; 0.25 kg/ha): 100% | % Control, Barnyardgrass ([9]; 0.125 kg/ha): 90% | % Control, Barnyardgrass ([9]; 0.25 kg/ha): 99% | % Control, Foxtail (foxtail (Setaria spp.); 0.125 kg/ha): 96% | % Control, Foxtail (foxtail (Setaria spp.); 0.25 kg/ha): 100% | % Control, Flower-of-an-Hour ([10]; 0.125 kg/ha): 100% | % Control, Flower-of-an-Hour ([10]; 0.25 kg/ha): 100% | % Control, Velvetleaf ([11]; 0.125 kg/ha): 100% | % Control, Velvetleaf ([11]; 0.25 kg/ha): 100%

O=C1C2=C(CCCC2)C(=O)N1c1ccc(Cl)cc1 [Treatment II, 2-(4-chlorophenyl)-4,5,6,7-tetrahydro-2H-isoindole-1,3-dione]
% Control, Pigweed ([1]; 0.5 kg/ha): 50% | % Control, Pigweed ([1]; 1.0 kg/ha): 70% | % Control, Pigweed ([1]; 2.0 kg/ha): 90% | % Control, Pigweed ([1]; 4.0 kg/ha): 99% | % Control, Crabgrass ([2]; 0.25 kg/ha): 99% | % Control, Crabgrass ([2]; 0.50 kg/ha): 100% | % Control, Crabgrass ([2]; 1.0 kg/ha): 100% | % Control, Crabgrass ([2]; 2.0 kg/ha): 100% | % Control, Lambsquarters ([3]; 0.5 kg/ha): 70% | % Control, Lambsquarters ([3]; 1.0 kg/ha): 80% | % Control, Lambsquarters ([3]; 2.0 kg/ha): 99% | % Control, Lambsquarters ([3]; 4.0 kg/ha): 99% | % Control, Ragweed ([4]; 0.25 kg/ha): 100% | % Control, Ragweed ([4]; 0.50 kg/ha): 100% | % Control, Ragweed ([4]; 1.0 kg/ha): 100% | % Control, Ragweed ([4]; 2.0 kg/ha): 100% | % Control, Crabgrass ([5]; 0.5 kg/ha): 0% | % Control, Crabgrass ([5]; 1.0 kg/ha): 20% | % Control, Crabgrass ([5]; 2.0 kg/ha): 40% | % Control, Crabgrass ([5]; 4.0 kg/ha): 60% | % Control, Smartweed ([6]; 0.5 kg/ha): 70% | % Control, Smartweed ([6]; 1.0 kg/ha): 80% | % Control, Smartweed ([6]; 2.0 kg/ha): 80% | % Control, Smartweed ([6]; 4.0 kg/ha): 99% | % Control, Velvetleaf ([7]; 0.5 kg/ha): 70% | % Control, Velvetleaf ([7]; 1.0 kg/ha): 80% | % Control, Velvetleaf ([7]; 2.0 kg/ha): 100% | % Control, Velvetleaf ([7]; 4.0 kg/ha): 100% | % Control, Foxtails (foxtails (Setaria spp.); 0.5 kg/ha): 0% | % Control, Foxtails (foxtails (Setaria spp.); 1.0 kg/ha): 20% | % Control, Foxtails (foxtails (Setaria spp.); 2.0 kg/ha): 40% | % Control, Foxtails (foxtails (Setaria spp.); 4.0 kg/ha): 40% | % Control, Pigweed ([8]; 0.25 kg/ha): 100% | % Control, Pigweed ([8]; 0.50 kg/ha): 100% | % Control, Pigweed ([8]; 1.0 kg/ha): 100% | % Control, Pigweed ([8]; 2.0 kg/ha): 100% | % Control, Barnyardgrass ([9]; 0.25 kg/ha): 58% | % Control, Barnyardgrass ([9]; 0.50 kg/ha): 97% | % Control, Barnyardgrass ([9]; 1.0 kg/ha): 99% | % Control, Barnyardgrass ([9]; 2.0 kg/ha): 100% | % Control, Foxtail (foxtail (Setaria spp.); 0.25 kg/ha): 99% | % Control, Foxtail (foxtail (Setaria spp.); 0.50 kg/ha): 100% | % Control, Foxtail (foxtail (Setaria spp.); 1.0 kg/ha): 100% | % Control, Foxtail (foxtail (Setaria spp.); 2.0 kg/ha): 100% | % Control, Flower-of-an-Hour ([10]; 0.25 kg/ha): 98% | % Control, Flower-of-an-Hour ([10]; 0.50 kg/ha): 100% | % Control, Flower-of-an-Hour ([10]; 1.0 kg/ha): 100% | % Control, Flower-of-an-Hour ([10]; 2.0 kg/ha): 100% | % Control, Velvetleaf ([11]; 0.25 kg/ha): 100% | % Control, Velvetleaf ([11]; 0.50 kg/ha): 100% | % Control, Velvetleaf ([11]; 1.0 kg/ha): 100% | % Control, Velvetleaf ([11]; 2.0 kg/ha): 100%

Reference: patent publication US4001272A, “Herbicidal 2-fluoro-4-halo-phenyl-4,5,6,7-tetrahydro-2H-isoindole-1,3-diones” (E. I. Du Pont de Nemours and Company, priority 1974, dated 1977)
